Experimental data published in patent publication US8993762B2, “Total synthesis of thaxtomin A analogues and their intermediates” (Marrone Bio Innovations, Inc, priority 2013, dated 2015).

Key:
mustard plants = assay: Comparison of herbicidal activity, track-sprayer application to mustard plants; type: in vivo; conditions: fifteen day mustard plants; sprayed at 0.25 and 1.0 mg/mL; counted on the 7th and 14th days; four replicates
Procedure: Synthesized thaxtomin A and thaxtomin A from fermentation were separately dissolved in ethanol first (final ethanol concentration in the spraying solution was 2%), then added into 0.2% Glycosperse O-20 water solution. Sonication completely dissolved the thaxtomin A. The concentration of thaxtomin A was 0.25 and 1.0 mg/mL. Water with 2% ethanol and 0.2% Glycosperse O-20 was used as a blank control. Fifteen day mustard plants were used in the experiments. Four replicates for each concentration of thaxtomin A were carried out. Spraying was performed using a Track Sprayer. The herbicidal activity was graded as percent control. Herbicidal activity was counted on the 7th and 14th days, respectively.

plant cells = conditions: Lawrence et al., 1990; cited from earlier work

CN1C(=O)[C@](O)(Cc2cccc(O)c2)N(C)C(=O)[C@@H]1Cc1c[nH]c2cccc([N+](=O)[O-])c12 [Synthesized thaxtomin A, Thaxtomin A]
herbicidal activity graded as percent control, synthesized vs natural thaxtomin A (mustard plants): no significant difference
effect on plant cells (plant cells): hypertrophy of plant cells at nanomolar amounts

CN1C(=O)[C@](O)(Cc2cccc(O)c2)N(C)C(=O)[C@@H]1Cc1c[nH]c2cccc([N+](=O)[O-])c12 [thaxtomin A from fermentation, thaxtomin A]
herbicidal activity graded as percent control, synthesized vs natural thaxtomin A (mustard plants): no significant difference
